Assay results: US8148391B2 (Cephalon, Inc., priority 2006, dated 2012)
pIC50: −log10 of the molar value. Read-outs that look alike come from different tables or passages of the source.

How the values were obtained:
[1] = biological target: T1, c-Met (cytoplasmic domain) (Homo sapiens, UniProt P08581); assay: c-Met Kinase Assay (same methods as for ALK, with modifications); type: biochemical
T1 construct: 10 ng/mL c-Met (cytoplasmic domain, Invitrogen Corporation #PV3143); purchased Invitrogen Corporation PV3143
T1 sequence (P08581 956-1390 limits assumed): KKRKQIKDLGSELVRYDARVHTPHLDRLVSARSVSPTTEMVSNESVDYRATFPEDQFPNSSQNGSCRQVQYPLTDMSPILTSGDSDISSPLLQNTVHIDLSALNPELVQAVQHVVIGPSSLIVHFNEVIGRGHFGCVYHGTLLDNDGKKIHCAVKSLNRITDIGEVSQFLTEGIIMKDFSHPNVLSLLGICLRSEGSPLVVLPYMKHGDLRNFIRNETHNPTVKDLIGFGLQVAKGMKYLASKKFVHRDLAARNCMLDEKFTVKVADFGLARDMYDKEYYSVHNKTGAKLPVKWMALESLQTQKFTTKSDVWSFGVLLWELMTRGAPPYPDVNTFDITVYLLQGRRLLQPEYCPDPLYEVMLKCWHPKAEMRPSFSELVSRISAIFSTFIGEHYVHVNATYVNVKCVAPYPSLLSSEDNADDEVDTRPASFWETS
Summary of the method: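 This plate-based kinase format uses immobilized phospholipase C-γ as substrate, phosphorylated by c-Met cytoplasmic domain (10 ng/mL) at 37° C for 15 minutes.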

[2] = biological target: T2, baculovirus-expressed ALK (Homo sapiens, UniProt Q9UM73); assay: ALK Kinase Assay (ELISA-type, time-resolved fluorescence); type: biochemical
T2 construct: host or cells: baculovirus expression system
T2 sequence (Q9UM73 19-1620): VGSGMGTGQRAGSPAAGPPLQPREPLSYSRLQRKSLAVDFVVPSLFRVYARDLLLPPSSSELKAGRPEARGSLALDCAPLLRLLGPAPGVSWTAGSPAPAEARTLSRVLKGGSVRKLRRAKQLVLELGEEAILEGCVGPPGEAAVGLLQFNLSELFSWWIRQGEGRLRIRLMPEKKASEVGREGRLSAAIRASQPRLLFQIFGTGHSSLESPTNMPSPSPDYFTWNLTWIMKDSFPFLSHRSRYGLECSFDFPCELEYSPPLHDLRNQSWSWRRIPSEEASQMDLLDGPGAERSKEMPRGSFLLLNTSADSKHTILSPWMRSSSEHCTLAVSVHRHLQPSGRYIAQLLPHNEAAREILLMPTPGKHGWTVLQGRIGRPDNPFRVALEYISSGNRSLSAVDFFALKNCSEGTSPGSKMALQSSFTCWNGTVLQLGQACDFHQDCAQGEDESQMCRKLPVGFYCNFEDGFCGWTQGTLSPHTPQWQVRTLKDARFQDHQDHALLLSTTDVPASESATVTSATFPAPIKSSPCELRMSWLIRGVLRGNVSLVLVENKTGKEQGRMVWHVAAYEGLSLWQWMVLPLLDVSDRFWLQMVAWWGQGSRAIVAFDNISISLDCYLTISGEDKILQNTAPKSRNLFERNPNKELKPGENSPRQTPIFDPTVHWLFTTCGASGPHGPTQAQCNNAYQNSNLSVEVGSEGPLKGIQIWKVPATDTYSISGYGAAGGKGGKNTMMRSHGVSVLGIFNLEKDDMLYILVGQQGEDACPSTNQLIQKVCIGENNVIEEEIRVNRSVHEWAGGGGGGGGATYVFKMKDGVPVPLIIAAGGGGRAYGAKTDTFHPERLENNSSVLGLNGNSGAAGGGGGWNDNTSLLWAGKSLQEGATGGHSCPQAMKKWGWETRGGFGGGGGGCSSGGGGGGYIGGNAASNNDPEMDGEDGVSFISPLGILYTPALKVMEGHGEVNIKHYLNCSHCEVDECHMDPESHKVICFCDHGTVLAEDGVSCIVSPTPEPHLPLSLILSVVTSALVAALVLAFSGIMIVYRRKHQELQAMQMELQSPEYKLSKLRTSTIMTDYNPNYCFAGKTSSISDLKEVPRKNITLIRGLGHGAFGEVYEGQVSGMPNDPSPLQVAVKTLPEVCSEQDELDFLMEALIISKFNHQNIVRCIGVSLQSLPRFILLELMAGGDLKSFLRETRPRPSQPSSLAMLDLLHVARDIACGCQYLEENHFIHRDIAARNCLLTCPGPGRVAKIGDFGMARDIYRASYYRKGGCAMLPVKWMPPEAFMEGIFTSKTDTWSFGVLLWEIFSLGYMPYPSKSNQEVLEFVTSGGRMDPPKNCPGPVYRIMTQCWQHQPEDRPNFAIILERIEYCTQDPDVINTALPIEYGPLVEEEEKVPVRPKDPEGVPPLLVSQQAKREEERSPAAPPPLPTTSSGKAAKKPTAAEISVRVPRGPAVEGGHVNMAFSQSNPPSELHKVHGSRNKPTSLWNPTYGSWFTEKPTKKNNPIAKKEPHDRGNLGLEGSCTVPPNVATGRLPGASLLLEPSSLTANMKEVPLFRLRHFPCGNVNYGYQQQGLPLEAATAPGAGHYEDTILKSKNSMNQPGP
Summary of the method: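 Substrate coating: phospholipase C-γ, 10 μg/mL in TBS. Kinase step: 30 ng/ml ALK, 15 min, 37° C. Detection and analysis: Eu-N1 PT66 antibody, with IC50 fitted as a sigmoidal variable-slope dose-response curve.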

[3] = 1 μM ATP (Km level), 10 ng/mL c-Met, read-out: cMet Activity (c-Met kinase inhibition, IC50 class)
[4] = 1 μM ATP (Km level), 30 ng/ml ALK, 37° C., 15 minutes, read-out: ALK Activity (ALK kinase inhibition, IC50 class)
[5] = c-Met kinase inhibition, 1 μM ATP, read-out: cMet Activity
[6] = ALK kinase inhibition, 1 μM ATP, read-out: ALK Activity
[7] = c-Met kinase inhibition, 1 μM ATP (Km level), read-out: cMet Activity
[8] = ALK kinase inhibition, 1 μM ATP (Km level), read-out: ALK Activity
[9] = 1 μM ATP (Km level), read-out: cMet Activity (c-Met Kinase Inhibition, IC50)
[10] = 1 μM ATP (Km level), read-out: ALK Activity (ALK Kinase Inhibition, IC50)

pIC50 [1, 7]	pIC50 [2, 8]	pIC50 [1, 9]	pIC50 [2, 10]	Compound	also measured
				CNC(=O)c1ccc([N+](=O)[O-])cc1Nc1nc(Nc2ccc3c(c2)C(C)(C)CCC(=O)N3)ncc1Cl [Example 1235, 2-[5-Chloro-2-(5,5-dimethyl-2-oxo-2,3,4,5-tetrahydro-1H-1-benzazepin-7-ylamino)-pyrimidin-4-ylamino]-N-methyl-4-nitro-benzamide]	pIC50 [1, 3]: 6.00 to 7.00; pIC50 [2, 4]: > 7.00
				CC1(C)NC(=O)CCc2ccc(Nc3ncc(Cl)c(NC4C5C=CC(C5)C4C(N)=O)n3)cc21 (stereo not shown) [Example 1832, 3-(5-Chloro-2-(1,1-dimethyl-3-oxo-2,3,4,5-tetrahydro-1H-benzo[c]azepin-8-ylamino)pyrimidin-4-ylamino)bicyclo[2.2.1]hept-5-ene-2-carboxamide]	pIC50 [1, 5]: > 7.00; pIC50 [2, 6]: > 7.00
> 7.00	> 7.00			CNC(=O)c1ccccc1Nc1nc(Nc2ccc3c(c2)CCN(C(=O)N(C)C)CC3)ncc1Cl [Example 327, 7-[5-Chloro-4-(2-methylcarbamoyl-phenylamino)-pyrimidin-2-ylamino]-1,2,4,5-tetrahydro-benzo[d]azepine-3-carboxylic acid dimethylamide]	
		< 5.00	6.00 to 7.00	COc1cc2c(cc1Nc1ncc(Cl)c(Nc3ccccc3-n3cccn3)n1)CCN(CC(C)(F)F)CC2 [Example 825, 5-Chloro-N*2*-[3-(2,2-difluoro-propyl)-8-methoxy-2,3,4,5-tetrahydro-1H-benzo[d]azepin-7-yl]-N*4*-(2-pyrazol-1-yl-phenyl)-pyrimidine-2,4-diamine]	
				CNC(=O)c1ccccc1Nc1nc(Nc2ccc3c(c2)CC(=O)NCC3)ncc1Cl [Example 1811, 2-[5-Chloro-2-(4-oxo-2,3,4,5-tetrahydro-1H-benzo[d]azepin-7-ylamino)-pyrimidin-4-ylamino]-N-methylbenzamide]	pIC50 [1, 5]: > 7.00; pIC50 [2, 6]: > 7.00
				COCCN1CCc2ccc(Nc3ncc(Cl)c(Nc4c(F)cccc4C(=O)NCCC#N)n3)cc2CC1 [Example 1043, 2-{5-Chloro-2-[3-(2-methoxy-ethyl)-2,3,4,5-tetrahydro-1H-benzo[d]azepin-7-ylamino]-pyrimidin-4-ylamino}-N-(2-cyano-ethyl)-3-fluoro-benzamide]	pIC50 [1, 3]: > 7.00; pIC50 [2, 4]: 6.00 to 7.00
		< 5.00	> 7.00	(1S,2S,3R,4R)-3-{5-Chloro-2-[6-(2-hydroxy-ethylamino)-1-methoxy-6,7,8,9-tetrahydro-5H-benzocyclohepten-2-ylamino]-pyrimidin-4-ylamino}-bicyclo[2.2.1]hept-5-ene-2-carboxylic acid amide [Example 960]	
				CNC(=O)c1ccccc1Nc1nc(Nc2c(OC)ccc3c2CCC(N2CCOCC2)CC3)ncc1Cl (stereo not shown) [Example 1073, 2-[5-Chloro-2-(2-methoxy-7-morpholin-4-yl-6,7,8,9-tetrahydro-5H-benzocyclohepten-1-ylamino)-pyrimidin-4-ylamino]-N-methyl-benzamide]	pIC50 [1, 3]: < 5.00; pIC50 [2, 4]: 6.00 to 7.00
		< 5.00	> 7.00	COc1cc2c(cc1Nc1ncc(Cl)c(Nc3ccc(N4CCOCC4)c(C)c3)n1)CCN(CC(=O)N(C)C)CC2 [Example 796, 2-{7-[5-Chloro-4-(3-methyl-4-morpholin-4-yl-phenylamino)-pyrimidin-2-ylamino]-8-methoxy-1,2,4,5-tetrahydro-benzo[d]azepin-3-yl}-N,N-dimethyl-acetamide]	
		6.00 to 7.00	6.00 to 7.00	CC(C)N1CCNC(=O)c2ccc(Nc3ncc(Cl)c(N[C@@H]4CCCC[C@H]4NS(C)(=O)=O)n3)cc21 [Example 499, N-{(1R,2R)-2-[5-Chloro-2-(1-isopropyl-5-oxo-2,3,4,5-tetrahydro-1H-benzo[e][1,4]diazepin-8-ylamino)-pyrimidin-4-ylamino]-cyclohexyl}-methanesulfonamide]	
		5.00 to 6.00	> 7.00	Cc1cccnc1-c1ccccc1Nc1nc(Nc2ccc3c(c2)C(C)(C)CCC(=O)N3)ncc1Cl [Example 971, 7-{5-Chloro-4-[2-(3-methyl-pyridin-2-yl)-phenylamino]-pyrimidin-2-ylamino}-5,5-dimethyl-1,3,4,5-tetrahydro-benzo[b]azepin-2-one]	
6.00 to 7.00	6.00 to 7.00			CNC(=O)c1cccc(F)c1Nc1nc(Nc2ccc3c(c2)C(=O)NCCC3)ncc1Cl [Example 400, 2-[5-Chloro-2-(1-oxo-2,3,4,5-tetrahydro-1H-benzo[c]azepin-8-ylamino)-pyrimidin-4-ylamino]-3-fluoro-N-methyl-benzamide]	
6.00 to 7.00	> 7.00			COCCN1CCc2ccc(Nc3ncc(Cl)c(Nc4ccccc4C(=O)NC4CC4)n3)cc2CC1 [Example 344, 2-{5-Chloro-2-[3-(2-methoxy-ethyl)-2,3,4,5-tetrahydro-1H-benzo[d]azepin-7-ylamino]-pyrimidin-4-ylamino}-N-cyclopropyl-benzamide]	
> 7.00	> 7.00			CNC(=O)c1ccccc1Nc1nc(Nc2ccc3c(c2)CCCC(=O)N3C)ncc1Br [Example 197, 2-[5-Bromo-2-(1-methyl-2-oxo-2,3,4,5-tetrahydro-1H-benzo[b]azepin-7-ylamino)-pyrimidin-4-ylamino]-N-methyl-benzamide]	
				COc1ccc2c(c1Nc1ncc(Cl)c(Nc3ccccc3-n3cccn3)n1)CCC(N1CCOCC1)CC2 (stereo not shown) [Example 1071, 5-Chloro-N*2*-(2-methoxy-7-morpholin-4-yl-6,7,8,9-tetrahydro-5H-benzocyclohepten-1-yl)-N*4*-(2-pyrazol-1-yl-phenyl)-pyrimidine-2,4-diamine]	pIC50 [1, 3]: < 5.00; pIC50 [2, 4]: 6.00 to 7.00
		5.00 to 6.00	> 7.00	COc1c(Nc2ncc(Cl)c(N[C@H]3[C@@H](C(N)=O)[C@@H]4C=C[C@H]3C4)n2)ccc2c1CCC(NCCO)CC2 (single isomer, unassigned) [Example 697]	
6.00 to 7.00	> 7.00			NC(=O)C1C2C=CC(C2)C1Nc1nc(Nc2ccc3c(c2)CNC(=O)NC3)ncc1Cl (stereo not drawn) [Example 228, (2-exo,3-exo)-3-[5-Chloro-2-(3-oxo-2,3,4,5-tetrahydro-1H-benzo[e][1,3]diazepin-7-ylamino)-pyrimidin-4-ylamino]-bicyclo[2.2.1]hept-5-ene-2-carboxylic acid amide]	

Compound	pIC50 [1, 7]	pIC50 [2, 8]	pIC50 [1, 9]	pIC50 [2, 10]	also measured
CNC(=O)c1ccccc1Nc1nc(Nc2ccc3c(c2)C2CCC3CN(C(=O)C(F)(F)F)C2)ncc1Cl (stereo not shown) [Example 276, 2-{5-Chloro-2-[10-(2,2,2-trifluoro-acetyl)-10-aza-tricyclo[6.3.2.0*2,7*]trideca-2,4,6-trien-4-ylamino]-pyrimidin-4-ylamino}-N-methyl-benzamide]	> 7.00	6.00 to 7.00			
COc1c(Nc2ncc(Cl)c(N[C@H]3[C@@H](C(N)=O)[C@@H]4C=C[C@H]3C4)n2)ccc2c1CC[C@@H](N1CCOCC1)CC2 [Example 882, (1S,2S,3R,4R)-3-[5-Chloro-2-((S)-1-methoxy-7-morpholin-4-yl-6,7,8,9-tetrahydro-5H-benzocyclohepten-2-ylamino)-pyrimidin-4-ylamino]-bicyclo[2.2.1]hept-5-ene-2-carboxylic acid amide]				> 7.00	pIC50 ([1]; cMet Activity (c-Met Kinase Inhibition, IC50), 1 μM ATP (Km level)): < 5.00
COCCN1C2CCC1c1cc(Nc3ncc(Cl)c(N[C@@H]4CCCC[C@H]4NS(C)(=O)=O)n3)ccc1C2 (stereo partly drawn) [Example 77, N-((1R,2R)-2-{5-Chloro-2-[12-(2-methoxy-ethyl)-12-aza-tricyclo[7.2.1.0*2,7*]dodeca-2(7),3,5-trien-4-ylamino]-pyrimidin-4-ylamino}-cyclohexyl)-methanesulfonamide]	6.00 to 7.00	> 7.00			
